The values below are quoted from earlier work in patent publication US10934070B2, “Anti-scalping pharmaceutical packaging film” (BEMIS COMPANY, INC., priority 2014, dated 2021).

For the data set the following is noted: at 25° C.

Regarding `CN1CCCC1c1cccnc1` (stereo not shown) [Nicotine], the vapor pressure was 5.65 Pa.

As a reminder, the vapor pressure is the equilibrium pressure above the liquid or solid.
